Test results from US9139581B2 (PORTOLA PHARMACEUTICALS, INC., priority 2008, dated 2015).
Where two headings read alike, the source gives them in different places.

Experiments:
[1] = target: T1, full length active recombinant SYK enzyme (Homo sapiens, UniProt P43405); assay: Inhibition of Syk tyrosine phosphorylation activity (LANCE TR-FRET); format: biochemical; settings: 1 nM SYK, 100 μM ATP
T1 construct: full length active recombinant SYK enzyme (Millipore, Calif.); purchased Millipore
In short: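 The reaction is quenched with buffer holding Eu-anti-phosphotyrosine and streptavidin-APC, and detection runs 1 hr at room temperature. TR-FRET is read and IC50s come from non-linear regression.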

[2] = test system: human platelet-rich plasma (PRP); assay: Inhibition of Convulxin-mediated platelet aggregation in vitro (PRP); format: cell-based; settings: Table 4, Convulxin-induced aggregation in human PRP, unit inferred
Procedure: The ability for candidate molecules to inhibit syk-mediated platelet functions are tested by measuring the inhibition the GPVI-specific agonist Convulxin-induced human platelet calcium-mobilization or aggregation. Calcium-mobilization is assessed in human washed platelets in a 96-well microtiter format.
Inhibition of Convulxin-Mediated Platelet Aggregation In Vitro
Platelet-rich plasma (PRP) is prepared by centrifugation of whole blood at 160×g for 20 minutes at room temperature. The PRP layer is removed, transferred to a new tube, and the platelet count is adjusted, if advantageous, to achieve a platelet concentration of ˜3×10^8 platelets/ml using platelet-poor plasma (PPP). PPP is prepared by centrifugation of the remaining blood sample (after removal of PRP) for 20 minutes at 800×g. This preparation of PRP can subsequently be used for aggregation assays in either a 96-well plate or standard cuvette aggregometry.
Inhibition of Convulxin-induced aggregation is determined in 96-well flat-bottom microtiter plates using a microtiter plate shaker and plate reader similar to the procedure described by Frantantoni et al., Am. J. Clin. Pathol. […] All steps are performed at room temperature. For 96-well plate aggregation using platelet-rich plasma (PRP), the total reaction volume of 0.2 ml/well includes 190 μl of PRP (˜3×10^8 platelets/ml, see above), and 5 μl of either serial dilution of test compounds in 30% DMSO or buffer (for control wells). After 20 minutes preincubation at room temperature 5 μl of 320 ng/ml Convulxin agonist solution is added to each well to give a final concentration of 8 ng/ml Convulxin. The plates are then agitated for 5 min on a microtiter plate shaker and the 5 minute reading is obtained in the microtitre plate reader (Softmax, Molecular Devices, Menlo Park, Calif.). Aggregation is calculated from the decrease of OD at 650 nm at t=5 minutes. IC50s were derived by non-linear regression analysis.
Inhibition of Convulxin-induced aggregation was also determined for cuvette light transmittance aggregation assays, serial dilutions (1:2) of test compounds were prepared in 30% DMSO in a 96 well V-bottom plate (final DMSO concentration in the cuvette was 0.3%). […] IC50s were derived by non-linear regression analysis.

[3] = Table 3, read-out: Syk IC50 code

SMILES	IC50 ([1]; Table 4, read-out: syk IC50)	IC50 [2]	IC50 [1, 3]
NCC1CCN(c2nc(Nc3ccc(N4CCNCC4)cc3)nc3[nH]ccc23)CC1 [Example 10, 4-(4-(aminomethyl)piperidin-1-yl)-N-(4-(piperazin-1-yl)phenyl)-7H-pyrrolo[2,3-d]pyrimidin-2-amine]	1 to 10 nM	33200 nM	
CC(=O)N1CCN(c2ccc(Nc3nc(N4CCC[C@H](N)C4)c4cc[nH]c4n3)cc2)CC1 [(S)-1-(4-(4-(4-(3-aminopiperidin-1-yl)-7H-pyrrolo[2,3-d]pyrimidin-2-ylamino)phenyl)piperazin-1-yl)ethanone]	100 to 1000 nM	13800 nM	
CC(=O)N1CCN(c2ccc(Nc3nc(N4CCC(CN)CC4)c4nc[nH]c4n3)cc2)CC1 [Example 15, 1-(4-(4-(6-(4-(aminomethyl)piperidin-1-yl)-9H-purin-2-ylamino)phenyl)piperazin-1-yl)ethanone]	10 to 100 nM	50000 nM	10 to 100 nM
NCC1CCN(c2nc(Nc3ccc4cn[nH]c4c3)ncc2F)CC1 [Example 16, N-(4-(4-(aminomethyl)piperidin-1-yl)-5-fluoropyrimidin-2-yl)-1H-indazol-6-amine]	10 to 100 nM	296 nM	
CC(=O)N1CCN(c2ccc(Nc3nc(N4CCC(CN)CC4)c4cc[nH]c4n3)cc2)CC1 [Example 11, 1-(4-(4-(4-(4-(aminomethyl)piperidin-1-yl)-7H-pyrrolo[2,3-d]pyrimidin-2-ylamino)phenyl)piperazin-1-yl)ethanone]	1 to 10 nM	5280 nM	
NCC1CCN(c2nc(Nc3ccc(C(N)=O)cc3)ncc2F)CC1 [Example 31, 4-(4-(4-(aminomethyl)piperidin-1-yl)-5-fluoropyrimidin-2-ylamino)benzamide]	10 to 100 nM	346 nM	
CC(=O)N1CCN(c2ccc(Nc3ncc(F)c(N4CCC(CN)CC4)n3)cc2)CC1 [Example 18, 1-(4-(4-(4-(4-(aminomethyl)piperidin-1-yl)-5-fluoropyrimidin-2-ylamino)phenyl)piperazin-1-yl)ethanone]	10 to 100 nM	195 nM	
NC(=O)C1CCCN(c2nc(Nc3ccc(N4CCNCC4)cc3)nc3[nH]ccc23)C1 (stereo not shown) [Example 8, 1-(2-(4-(piperazin-1-yl)phenylamino)-7H-pyrrolo[2,3-d]pyrimidin-4-yl)piperidine-3-carboxamide]	100 to 1000 nM	25300 nM	
CC(=O)N1CCN(c2ccc(Nc3nc(N4CCC(CN)CC4)c4c(C#N)c[nH]c4n3)cc2)CC1 [Example 14, 2-(4-(4-acetylpiperazin-1-yl)phenylamino)-4-(4-(aminomethyl)piperidin-1-yl)-7H-pyrrolo[2,3-d]pyrimidine-5-carbonitrile]	10 to 100 nM	50000 nM	10 to 100 nM
CC(=O)N(C)c1ccc(Nc2ncc(F)c(N3CCC(CN)CC3)n2)cc1 [Example 29, N-(4-(4-(4-(aminomethyl)piperidin-1-yl)-5-fluoropyrimidin-2-ylamino)phenyl)-N-methylacetamide]	10 to 100 nM	316 nM	
NCC1CCN(c2nc(Nc3ccc4c(c3)CCC(=O)N4)ncc2F)CC1 [Example 33, 6-(4-(4-(aminomethyl)piperidin-1-yl)-5-fluoropyrimidin-2-ylamino)-3,4-dihydroquinolin-2(1H)-one]	10 to 100 nM	336 nM	
CC(=O)N1CCN(c2ccc(Nc3nc(N4CCCC(C(N)=O)C4)c4cc[nH]c4n3)cc2)CC1 (stereo not shown) [Example 9, 1-(2-(4-(4-acetylpiperazin-1-yl)phenylamino)-7H-pyrrolo[2,3-d]pyrimidin-4-yl)piperidine-3-carboxamide]	100 to 1000 nM	12300 nM	
CC(=O)N1CCN(c2ccc(Nc3nc(N4CCCCC4)c4cc[nH]c4n3)cc2)CC1 [Example 20, 1-(4-(4-(4-(piperidin-1-yl)-7H-pyrrolo[2,3-d]pyrimidin-2-ylamino)phenyl)piperazin-1-yl)ethanone]	> 1000 nM		
NCC1CCN(c2nc(Nc3ccc4c(c3)CCC(=O)N4)ncc2C2CC2)CC1 [Example 139, 6-(4-(4-(aminomethyl)piperidin-1-yl)-5-cyclopropylpyrimidin-2-ylamino)-3,4-dihydroquinolin-2(1H)-one]			100 to 1000 nM
CN(C(=O)C1CC1)c1ccc(Nc2nc(NC3CCC3)c3cc[nH]c3n2)cc1 [Example 80, N-(4-(4-(cyclobutylamino)-7H-pyrrolo[2,3-d]pyrimidin-2-ylamino)phenyl)-N-methylcyclopropanecarboxamide]			100 to 1000 nM
COc1cc(Nc2ncc(F)c(N3CCC(CN)CC3)n2)cc(OC)c1OC [Example 17, 4-(4-(aminomethyl)piperidin-1-yl)-5-fluoro-N-(3,4,5-trimethoxyphenyl)pyrimidin-2-amine]	100 to 1000 nM		
CC(=O)N1CCN(c2ccc(Nc3nc(Nc4cccc(S(N)(=O)=O)c4)c4cc[nH]c4n3)cc2)CC1 [Example 96A, 3-(2-(4-(4-acetylpiperazin-1-yl)phenylamino)-7H-pyrrolo[2,3-d]pyrimidin-4-ylamino)benzenesulfonamide]			100 to 1000 nM
CNc1nc(Nc2ccc3cn[nH]c3c2)nc2[nH]cc(-c3ccncc3)c12 [Example 1, N2-(1H-indazol-6-yl)-N4-methyl-5-(pyridin-4-yl)-7H-pyrrolo[2,3-d]pyrimidine-2,4-diamine]			10 to 100 nM
Brc1c[nH]c2nc(Nc3ccc4cn[nH]c4c3)nc(NC3CCC3)c12 [Example 49, 5-bromo-N4-cyclobutyl-N2-(1H-indazol-6-yl)-7H-pyrrolo[2,3-d]pyrimidine-2,4-diamine]			1 to 10 nM
NC(=O)c1c[nH]c2nc(Nc3ccc4c(c3)CCC(=O)N4)nc(NC3CC3)c12 [Example 108, 4-(cyclopropylamino)-2-(2-oxo-1,2,3,4-tetrahydroquinolin-6-ylamino)-7H-pyrrolo[2,3-d]pyrimidine-5-carboxamide]			> 1000 nM
OC1CCN(c2ccc(Nc3nc(NC4CCC4)c4cc[nH]c4n3)cc2)CC1 [Example 56, 1-(4-(4-(cyclobutylamino)-7H-pyrrolo[2,3-d]pyrimidin-2-ylamino)phenyl)piperidin-4-ol]			10 to 100 nM
O=S(=O)(c1ccc(Nc2nc(NC3CCC3)c3cc[nH]c3n2)cc1)N1CCC(O)CC1 [Example 52, 1-(4-(4-(cyclobutylamino)-7H-pyrrolo[2,3-d]pyrimidin-2-ylamino)phenylsulfonyl)piperidin-4-ol]			10 to 100 nM
NC[C@@H]1CCCN1c1nc(Nc2ccc3cn[nH]c3c2)nc2[nH]ccc12 [(S)-4-(2-(aminomethyl)pyrrolidin-1-yl)-N-(1H-indazol-6-yl)-7H-pyrrolo[2,3-d]pyrimidin-2-amine]	> 1000 nM		
CNc1nc(Nc2ccc(N3CCN(C(C)=O)CC3)cc2)nc2[nH]cc(-c3ccncc3)c12 [Example 2, 1-(4-(4-(4-(methylamino)-5-(pyridin-4-yl)-7H-pyrrolo[2,3-d]pyrimidin-2-ylamino)phenyl)piperazin-1-yl)ethanone]			100 to 1000 nM
N[C@H]1CC[C@@H](Nc2nc(Nc3ccc4c(c3)CCC(=O)N4)ncc2C2CC2)CC1 [Example 144, 6-(4-((1s,4s)-4-aminocyclohexylamino)-5-cyclopropylpyrimidin-2-ylamino)-3,4-dihydroquinolin-2(1H)-one]			10 to 100 nM
CC(=O)N1CCN(c2ccc(Nc3ncc(F)c(N4CCCC(C(N)=O)C4)n3)cc2)CC1 (stereo not shown) [Example 27, 1-(2-(4-(4-acetylpiperazin-1-yl)phenylamino)-5-fluoropyrimidin-4-yl)piperidine-3-carboxamide]	> 1000 nM		
